# Test results reported in patent US5162361A, “Method of treating diseases associated with elevated levels of interleukin 1” (priority 1990, dated 1992).
# Entries after “also recorded” stand apart in the source; their conditions may differ.
# What was measured:
# [1] = test system: IL-1; experiment: IL-1 release from alveolar macrophages (thymocyte co-stimulation bioassay); type: cell-based, rat; settings: 24 h after LPS (5 ng/ml), FIG. 1a
# Method: Pulmonary alveolar macrophages were collected by lavaging the lungs as previously described (D. B. Warheit et al., Am. Rev. Resp. Dis. 134, 128 (1986)). Once washed and resuspended, the macrophages were allowed to adhere to plastic plates in serum free RPMI 1640 containing 25 mM Hepes, 2 mM L-glutamine, 50 μg/ml gentamicin and streptomycin (media). Following adherence for 1 hour at 37° C. in 5% CO2, the plates were washed once with warm media to remove nonadherent cells, cells were resuspended in media with 10% FCS and treated with or without pentamidine at the indicated concentration and LPS (5 ng/ml) for 24 hours). IL-1 activity was assayed using a thymocyte co-stimulation assay (S. B. Mizel in Methods in Macrophage Biology, Editors, Herscowitz and Holden (1981)). Single cell thymocyte suspension from B6C3F1 mice (female, 5-9 weeks old) at a concentration of 2.0×10^7 /ml in media containing 10% FCS, and 2.5×10^-5 M 2-β mercaptoethanol were added in 50 μl aliquots to each well of flat bottom microtiter plates along with 50 μl of PHA at 2.5 μg/ml. Serial dilution of supernatants or cells were made in media with 10% FCS and added in 100 μl aliquots. IL-1 activity was measured by quantifying the uptake of 3Hthymidine during the last 6 hours of a 72 hour culture at 37° C. and 5% CO2. Cells were harvested onto glass fiber filters and filter associated radioactivity counted in a scintillation counter.
# (§1) In vitro studies were performed by taking alveolar macrophages from normal healthy rat lungs and culturing them in the presence of an imidazoline with the inducer lipopolysaccharide for 24 hours. The standard bioassay for IL-1 was performed (see above).
# [2] = test system: IL-1α mRNA; experiment: Northern blot analysis of IL-1α mRNA expression; type: cell-based, rat; settings: 10 μM pentamidine, LPS, 3 h, FIG. 2
# Method: Specific transcription of IL-1α mRNA synthesis was assessed by incubating cells with and without 10 μM pentamidine or 1 μM of the corticosteroid, dexamethasone in the presence or absence of lipopolysaccharide (LPS). At the end of a 3 hour incubation period, the cells were lysed and the total cellular RNA was collected, blotted onto a nitrocellulose filter and probed with ^32 P-labeled IL-1α cDNA. […] In contrast, mRNA for IL-1α was not seen in dexamethasone treated cells.
# For determination of IL-1 mRNA levels, cells (4×10^6) were cultured with or without pentamidine (10 μM) or dexamethasone (1 μM) in media with 10% FCS in the presence or absence of LPS (1 μg/ml) for 3 hours. Total cellular RNA was isolated by quanidinium-thiocyanate phenolchloroform extraction (P. Chomczynski et al., Anal. Bioch. 162, 156 (1987)). RNA (10 μg) was electrophoresed in 1.2% agarose gels as previously described (H. Leharch et al., Biochemistry 4743 (1977)). […] Hybridizing species were detected by autoradiography at -70° C., using Kodak XAR film with an intensifying screen. The total RNA levels per lane on the gel was assessed by monitoring 28S and 18S, and expression of α-tubulin mRNA. Accumulation of α-tubulin mRNA was determined by probing the same blot with ^32 P labeled 30 mer oligonucleotide (Du Pont).
# [3] = test system: human IL-1; experiment: IL-1 secretion by human alveolar macrophages (enzyme linked immunosorbant assay); type: cell-based; settings: 10^-5 M
# Method: Dose response studies were performed to determine the molar concentration at which pentamidine reduced viability in normal rat macrophages. […] This blockage was shown using an enzyme linked immunosorbant assay with specific antibody to IL-1β.
# Four normal healthy human volunteers were lavaged and their pulmonary macrophages cultured in vitro in the presence of 10^-5 M pentamidine and the IL-1 inducer, lipopolysaccharide. Following 24 hours of incubation, the supernatant fluid was collected and stored at -20° C. for IL-1 determination using an enzyme linked immunosorbant assay with specific antibody to human IL-1.
# [4] = test system: Ia antigen; experiment: Ia antigen expression on alveolar macrophages (flow cytometry); type: cell-based, rat
# Method: ^a Ia antigen expression - Alveolar macrophages were diluted to 1×10^6 cells/ml in RPMI (supplemented as above). Three mls. (3×10^6 cells) were added to sterile teflon vials and treated with pentamidine or dexamethasone for 4 hours at 37° C., 5% CO2, followed by the addition of rat γ IFN at 100 U/ml. Cells were incubated for 18 hours, pelleted, counted and adjusted to 1×10^7 cells/ml in ice cold standard buffer (HBSS, 0.1% Na azide, 1% BSA).
# Aliquots of cells (50 μl in quadruplicate) from the various treatment groups were plated to a 96 well round bottom plate (Linbro) and incubated for 45 minutes on ice with 50 μl aliquots of one of the following: monoclonal anti-rat OXS (Sera-lab), monoclonal anti-mouse OX6 (Sera-lab), both at 0.5 μg/5×10^5 cells, or HBSS (control). Cells were washed 3× with standard buffer and incubated for 45 minutes on ice, in the dark, with 50 μl of phycoerythrin-labeled goat anti-mouse IGGI (Fisher Biotech) at 1 μg/5×10^5 cells. Cells were washed 3× with standard buffer, resuspended in 0.4 ml of standard buffer and analyzed via flow cytometry.
# [5] = test system: tumor necrosis factor; experiment: Tumor necrosis factor secretion by rat macrophages; type: cell-based; settings: pentamidine 10^-5 M, rat macrophages (control 82 units/ml)
# Method: (§2) It has also been observed that pentamidine (10^-5 M) blocks the secretion of tumor necrosis factor in rat macrophages (42 units/ml - pentamidine vs. 82 units/ml - control), as well as tumor necrosis factor and IL-6 in human macrophages, where at a concentration of 10^-5 M pentamidine, tumor necrosis factor and IL-6 secretion are suppressed >50%. These additional cytokines are also very influential mediators in inflammatory diseases.
# as §1
# [6] = test system: tumor necrosis factor; experiment: Tumor necrosis factor secretion by human macrophages; type: cell-based; settings: Macrophage, 10^-5 M, read-out: Suppression of tumor necrosis factor secretion
# Excerpt: as §2
compound,measurement,setting,value
"N=C(N)c1ccc(OCCCCCOc2ccc(C(=N)N)cc2)cc1 [Pentamidine, 1,5-bis(4-amidinophenoxy)pentane]",IL-1 release,[1],decreased in a concentration dependant manner; also recorded: decreased in a concentration dependent manner
same,IL-1α mRNA expression,[2],lack of effect on mRNA expression; also recorded: equal amounts of L-1α mRNA
same,IL-1 (IL-1β) secretion by human macrophages,"[3]; ELISA with specific antibody to IL-1β, result in words",blocks IL-1 secretion; also recorded: decreased IL-1β release by human macrophages
same,inhibition at 10 µM,"[3]; Macrophage, 24 h, cumulative over four human subjects, vs. untreated macrophages of same individual, read-out: Suppression in the amount of IL-1 secreted",62.1%
same,Ia Antigen Expression (MFI),[4]; Pentamidine 10^-5 M (control 459),464 MFI
same,Mean concentration of Ia molecules on Ia positive cells,[4]; result in words,nor did it influence the mean concentration of Ia molecules on Ia positive cells
same,Tumor necrosis factor secretion,[5],42 units/ml
same,inhibition at 10 µM,[6],> 50%
